According to US20100221350A1, “DERMATOLOGICAL COMPOSITIONS COMPRISING VITAMIN D LIPID VESICLES” (GALDERMA S.A., priority 2007, published 2010):

Test: Preformulation stability and solubility tests of calcitriol in two excipients
Type: physicochemical
Details: 800 ppm; 4° C., ambient temperature and 40° C.; 1 month
Method: Preliminary preformulation studies were carried out to direct the choice of the lipid core (oily internal phase) of the lipid vesicles. The results of tests of stability and of solubility of calcitriol in two excipients are presented in the graphs below. The objective of these solubility and stability studies on calcitriol is to find the oil which will make possible good solubility of calcitriol for the proposals for internal phase used in this concept and good stability of calcitriol in this excipient. Calcitriol is stable at 800 ppm in Miglyol 812 (caprylic/capric triglyceride: MTC) and tocopherol acetate at the three temperatures (4° C., ambient temperature and 40° C.) for 1 month.

C=C1/C(=C\C=C2/CCC[C@]3(C)[C@@H]([C@H](C)CCCC(C)(C)O)CC[C@@H]23)C[C@@H](O)C[C@@H]1O [Calcitriol, calcitriol]
Stability of calcitriol in Miglyol 812 (caprylic/capric triglyceride): stable | Stability of calcitriol in tocopherol acetate: stable
